According to patent US10138227B2, “Heteroaryl substituted pyridines and methods of use” (AbbVie S.à.r.l., priority 2016, dated 2018):

Target: T1, CFTR ΔF508 mutant (Homo sapiens, UniProt P13569, DEL508-508)
T1 construct: expressed in transfected cells; host or cells: CFBE41o- cells transduced with adenoviral vectors
Assay: YFP-halide influx assay for the CFTR-ΔF508 mutation
Format: cell-based
Settings: CFBE41o- cells expressing CFTR ΔF508 and YFP reporter, forskolin 10.67 μM; for EC50: (1-F/F0) vs concentration
Text: The YFP halide influx assay measured the functionality of the cystic fibrosis Transmembrane Conductance regulator (CFTR) channels in the cystic fibrosis bronchial epithelium cell line CFBE41o-. The assay was used to evaluate the capacity of compounds to increase the open probability of existing CFTR channels in the membrane. It makes use of the observation that the yellow fluorescent protein (YFP) variant YFP H148Q, I152L, F47L has its fluorescence substantially quenched by halide ions like Cl^− and I^− (Galietta, L. J. V., Haggie, P. M., Verkman, A. S., 2001. Green fluorescent protein-based halide indicators with improved chloride and iodide affinities. FEBS Lett. 499, 220-224. doi:10.1016/S0014-5793(01)02561-3; Nagai, T., Ibata, K., Park, E. S., Kubota, M., Mikoshiba, K., Miyawaki, A., 2002. A variant of yellow fluorescent protein with fast and efficient maturation for cell-biological applications. Nat. Biotechnol. 20, 87-90. doi:10.1038/nbt0102-87).
For this purpose, CFBE410-cells were seeded in 384 well plates (3000 CFBE cells/well). One day after seeding, the CFBE cells were transduced with adenoviral vectors that direct the expression of the CFTR ΔF508 mutant and of the YFP reporter. Cells were incubated at 27° C., 5% CO2 for 24 hours so as to allow for the proper folding and migration to the membrane of the CFTR channel or treated with a CFTR modulator during 24 hours at 37° C.
The I-induced quenching of fluorescence was recorded on an immediately after injection of iodide for 2 minutes on an FDSS/μCell (Hamamatsu). The capacity of a compound to increase the channel opening was directly correlated with the decrease in fluorescence, and was expressed as (1-(fluorescence after 36 seconds (F)/fluorescence before injection (F0))) and an EC50 was derived from a (1-F/F0) vs compound concentration plot.

T1 sequence (P13569 with tags, fused parts or gaps DEL508-508): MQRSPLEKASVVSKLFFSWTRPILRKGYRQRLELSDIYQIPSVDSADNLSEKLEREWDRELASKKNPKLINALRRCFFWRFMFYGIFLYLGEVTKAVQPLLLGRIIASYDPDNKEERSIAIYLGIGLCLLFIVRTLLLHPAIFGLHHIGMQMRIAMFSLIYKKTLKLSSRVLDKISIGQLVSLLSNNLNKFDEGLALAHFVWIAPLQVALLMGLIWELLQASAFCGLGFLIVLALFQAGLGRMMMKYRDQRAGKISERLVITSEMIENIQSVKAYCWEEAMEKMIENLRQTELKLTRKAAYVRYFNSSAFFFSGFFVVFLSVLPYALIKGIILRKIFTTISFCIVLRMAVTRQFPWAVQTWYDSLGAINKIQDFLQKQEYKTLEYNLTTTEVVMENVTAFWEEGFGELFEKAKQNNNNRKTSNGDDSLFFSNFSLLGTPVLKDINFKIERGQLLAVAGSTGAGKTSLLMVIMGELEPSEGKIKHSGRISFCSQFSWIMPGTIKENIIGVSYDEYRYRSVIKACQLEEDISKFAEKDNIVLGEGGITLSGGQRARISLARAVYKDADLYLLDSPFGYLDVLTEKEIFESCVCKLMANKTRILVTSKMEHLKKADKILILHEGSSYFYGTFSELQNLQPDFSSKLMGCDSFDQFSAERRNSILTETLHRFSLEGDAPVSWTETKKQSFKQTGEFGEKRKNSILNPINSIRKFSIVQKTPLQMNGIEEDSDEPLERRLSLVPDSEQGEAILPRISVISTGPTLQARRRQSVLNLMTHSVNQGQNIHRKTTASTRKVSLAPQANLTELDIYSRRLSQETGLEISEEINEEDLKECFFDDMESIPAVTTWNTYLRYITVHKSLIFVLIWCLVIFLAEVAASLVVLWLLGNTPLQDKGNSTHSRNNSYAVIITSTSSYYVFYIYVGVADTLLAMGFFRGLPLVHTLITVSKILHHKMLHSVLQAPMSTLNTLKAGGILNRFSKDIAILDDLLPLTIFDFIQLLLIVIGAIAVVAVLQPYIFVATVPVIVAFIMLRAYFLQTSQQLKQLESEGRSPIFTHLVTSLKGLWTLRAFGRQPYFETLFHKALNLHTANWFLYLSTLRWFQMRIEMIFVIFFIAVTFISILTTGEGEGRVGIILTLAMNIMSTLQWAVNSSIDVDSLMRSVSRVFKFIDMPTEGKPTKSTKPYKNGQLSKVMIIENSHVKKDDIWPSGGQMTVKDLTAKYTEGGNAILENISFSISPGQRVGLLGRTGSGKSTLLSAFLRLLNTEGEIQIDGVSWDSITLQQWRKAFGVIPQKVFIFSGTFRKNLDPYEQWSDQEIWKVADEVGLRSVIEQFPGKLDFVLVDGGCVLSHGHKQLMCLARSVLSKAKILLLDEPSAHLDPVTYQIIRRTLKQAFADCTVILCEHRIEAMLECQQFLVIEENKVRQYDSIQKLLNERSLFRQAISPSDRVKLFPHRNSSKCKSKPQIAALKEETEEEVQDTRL

SMILES | % Activation [%] | EC50 [nM]
CO[C@@H](C)c1nnc(-c2ncc(S(=O)(=O)c3ccc(OC(F)(F)F)cc3)cc2N)s1 [Compound 23, 2-{5-[(1S)-1-methoxyethyl]-1,3,4-thiadiazol-2-yl}-5-[4-(trifluoromethoxy)benzene-1-sulfonyl]pyridin-3-amine] | 100.92 | 37.1
Nc1cc(S(=O)(=O)c2cccc(OC(F)(F)F)c2)cnc1-c1nnc(CO)o1 [Compound 58, (5-{3-amino-5-[3-(trifluoromethoxy)benzene-1-sulfonyl]pyridin-2-yl}-1,3,4-oxadiazol-2-yl)methanol] | 104.91 | 3.51
COCCOCc1nnc(-c2ncc(S(=O)(=O)c3ccc(OC(F)(F)F)cc3)cc2N)s1 [Compound 17, 2-{5-[(2-methoxyethoxy)methyl]-1,3,4-thiadiazol-2-yl}-5-[4-(trifluoromethoxy)benzene-1-sulfonyl]pyridin-3-amine] | 117.3 | 11.4
Nc1cc(S(=O)(=O)c2ccc(OC(F)(F)F)cc2)cnc1-c1nnc(COCC2CC2)o1 [Compound 12, 2-{5-[(cyclopropylmethoxy)methyl]-1,3,4-oxadiazol-2-yl}-5-[4-(trifluoromethoxy)benzene-1-sulfonyl]pyridin-3-amine] | 100.38 | 8.52
CO[C@@H](C)c1nnc(-c2ncc(S(=O)(=O)c3ccc(OC(F)(F)F)cc3)cc2N)o1 [Compound 35, 2-{5-[(1S)-1-methoxyethyl]-1,3,4-oxadiazol-2-yl}-5-[4-(trifluoromethoxy)benzene-1-sulfonyl]pyridin-3-amine] | 98.52 | 20.8
Nc1cc(S(=O)(=O)c2ccc(OC(F)(F)F)cc2)cnc1-c1nnc(COC(F)(F)F)s1 [Compound 28, 5-[4-(trifluoromethoxy)benzene-1-sulfonyl]-2-{5-[(trifluoromethoxy)methyl]-1,3,4-thiadiazol-2-yl}pyridin-3-amine] | 50.3 | 
Nc1cc(S(=O)(=O)c2ccc(OC(F)(F)F)cc2)cnc1-c1nc(CC2CCCO2)no1 (stereo not shown) [Compound 51, 2-{3-[(oxolan-2-yl)methyl]-1,2,4-oxadiazol-5-yl}-5-[4-(trifluoromethoxy)benzene-1-sulfonyl]pyridin-3-amine] | 23.23 | > 3320
COCc1nnc(-c2ncc(S(=O)(=O)c3ccc(OC(F)(F)F)cc3)cc2N)s1 [Compound 26, 2-[5-(methoxymethyl)-1,3,4-thiadiazol-2-yl]-5-[4-(trifluoromethoxy)benzene-1-sulfonyl]pyridin-3-amine] | 101.69 | 3.33
Nc1cc(S(=O)(=O)c2ccc(OC(F)(F)F)cc2)cnc1-c1nnco1 [Compound 6, 2-(1,3,4-oxadiazol-2-yl)-5-[4-(trifluoromethoxy)benzene-1-sulfonyl]pyridin-3-amine] | 86.03 | 78.1
Nc1cc(S(=O)(=O)c2ccc(F)cc2)cnc1-c1nnc(CO)o1 [Compound 9, {5-[3-amino-5-(4-fluorobenzene-1-sulfonyl)pyridin-2-yl]-1,3,4-oxadiazol-2-yl}methanol] | 104.65 | 96.7
COCCc1noc(-c2ncc(S(=O)(=O)c3ccc(OC(F)(F)F)cc3)cc2N)n1 [Compound 55, 2-[3-(2-methoxyethyl)-1,2,4-oxadiazol-5-yl]-5-[4-(trifluoromethoxy)benzene-1-sulfonyl]pyridin-3-amine] | 2.76 | > 4990
CC(C)c1ccccc1S(=O)(=O)c1cnc(-c2nnc(CO)o2)c(N)c1 [Compound 65, (5-{3-amino-5-[2-(propan-2-yl)benzene-1-sulfonyl]pyridin-2-yl}-1,3,4-oxadiazol-2-yl)methanol] | 106.55 | < 1.05
Nc1cc(S(=O)(=O)c2ccc(OC(F)(F)F)cc2)cnc1-c1nc(C2CCOC2)no1 (stereo not shown) [Compound 53, 2-[3-(oxolan-3-yl)-1,2,4-oxadiazol-5-yl]-5-[4-(trifluoromethoxy)benzene-1-sulfonyl]pyridin-3-amine] | 15.28 | > 4990
CC(O)c1nnc(-c2ncc(S(=O)(=O)c3ccc(OC(F)(F)F)cc3)cc2N)o1 (stereo not shown) [Compound 42, 1-(5-{3-amino-5-[4-(trifluoromethoxy)benzene-1-sulfonyl]pyridin-2-yl}-1,3,4-oxadiazol-2-yl)ethan-1-ol] | 109.65 | 1.57
Nc1cc(S(=O)(=O)c2ccccc2)cnc1-c1nnc(CO)o1 [Compound 61, {5-[3-amino-5-(benzenesulfonyl)pyridin-2-yl]-1,3,4-oxadiazol-2-yl}methanol] | 97.36 | 97.4
Nc1cc(S(=O)(=O)c2ccc(OC(F)(F)F)cc2)cnc1-c1nnc(COC2CCOC2)o1 (stereo not shown) [Compound 16, 2-(5-{[(oxolan-3-yl)oxy]methyl}-1,3,4-oxadiazol-2-yl)-5-[4-(trifluoromethoxy)benzene-1-sulfonyl]pyridin-3-amine] | 110.75 | 78.1
Nc1cc(S(=O)(=O)c2ccc(OC(F)(F)F)cc2)cnc1-c1nnc(C[C@@H]2CCCO2)s1 [Compound 31, 2-(5-{[(2S)-oxolan-2-yl]methyl}-1,3,4-thiadiazol-2-yl)-5-[4-(trifluoromethoxy)benzene-1-sulfonyl]pyridin-3-amine] | 102.85 | 36.9
NC(=O)c1nnc(-c2ncc(S(=O)(=O)c3ccc(OC(F)(F)F)cc3)cc2N)o1 [Compound 8, 5-{3-amino-5-[4-(trifluoromethoxy)benzene-1-sulfonyl]pyridin-2-yl}-1,3,4-oxadiazole-2-carboxamide] | 93.73 | 300
Nc1cc(S(=O)(=O)c2ccc(OC(F)(F)F)cc2)cnc1-c1nnc([C@@H](O)Cc2ccccc2)o1 [Compound 44, (1S)-1-(5-{3-amino-5-[4-(trifluoromethoxy)benzene-1-sulfonyl]pyridin-2-yl}-1,3,4-oxadiazol-2-yl)-2-phenyl ethan-1-ol] | 105.25 | 1.63
CO[C@@H](c1ccccc1)c1nnc(-c2ncc(S(=O)(=O)c3ccc(OC(F)(F)F)cc3)cc2N)s1 [Compound 19, 2-{5-[(S)-methoxy(phenyl)methyl]-1,3,4-thiadiazol-2-yl}-5-[4-(trifluoromethoxy)benzene-1-sulfonyl]pyridin-3-amine] | 97.54 | 350
Nc1cc(S(=O)(=O)c2ccc(OC(F)(F)F)cc2)cnc1-c1nnc(C[C@H]2CCCO2)s1 [Compound 32, 2-(5-{[(2R)-oxolan-2-yl]methyl}-1,3,4-thiadiazol-2-yl)-5-[4-(trifluoromethoxy)benzene-1-sulfonyl]pyridin-3-amine] | 105.02 | 36.6
CC(C)(C)c1noc(-c2ncc(S(=O)(=O)c3ccc(OC(F)(F)F)cc3)cc2N)n1 [Compound 54, 2-(3-tert-butyl-1,2,4-oxadiazol-5-yl)-5-[4-(trifluoromethoxy)benzene-1-sulfonyl]pyridin-3-amine] | 12.02 | > 4990
